Target: JAK2 (Homo sapiens, UniProt O60674)
Assay: JAK2 Tyrosine Kinase Assay
Format: biochemical
Conditions: list of named compounds; read-out: IC50 in the JAK2 assay
Procedure: JAK2 Tyrosine Kinase Assay
The assays were performed in V-bottom 384-well plates. […] The reaction was initiated by the combination of JAK2 with substrates and test compounds. The reaction was incubated at room temperature for 60 min. and terminated by adding 45 μl of 35 mM EDTA to each sample. The reaction mixture was analyzed on the Caliper LabChip 3000 by electrophoretic separation of the fluorescent substrate and phosphorylated product. […] Compounds were dissolved at 10 mM in dimethylsulfoxide (DMSO) and evaluated at eleven concentrations, each in duplicate. IC50 values were derived by non-linear regression analysis

Chain of JAK2 (O60674 whole entry): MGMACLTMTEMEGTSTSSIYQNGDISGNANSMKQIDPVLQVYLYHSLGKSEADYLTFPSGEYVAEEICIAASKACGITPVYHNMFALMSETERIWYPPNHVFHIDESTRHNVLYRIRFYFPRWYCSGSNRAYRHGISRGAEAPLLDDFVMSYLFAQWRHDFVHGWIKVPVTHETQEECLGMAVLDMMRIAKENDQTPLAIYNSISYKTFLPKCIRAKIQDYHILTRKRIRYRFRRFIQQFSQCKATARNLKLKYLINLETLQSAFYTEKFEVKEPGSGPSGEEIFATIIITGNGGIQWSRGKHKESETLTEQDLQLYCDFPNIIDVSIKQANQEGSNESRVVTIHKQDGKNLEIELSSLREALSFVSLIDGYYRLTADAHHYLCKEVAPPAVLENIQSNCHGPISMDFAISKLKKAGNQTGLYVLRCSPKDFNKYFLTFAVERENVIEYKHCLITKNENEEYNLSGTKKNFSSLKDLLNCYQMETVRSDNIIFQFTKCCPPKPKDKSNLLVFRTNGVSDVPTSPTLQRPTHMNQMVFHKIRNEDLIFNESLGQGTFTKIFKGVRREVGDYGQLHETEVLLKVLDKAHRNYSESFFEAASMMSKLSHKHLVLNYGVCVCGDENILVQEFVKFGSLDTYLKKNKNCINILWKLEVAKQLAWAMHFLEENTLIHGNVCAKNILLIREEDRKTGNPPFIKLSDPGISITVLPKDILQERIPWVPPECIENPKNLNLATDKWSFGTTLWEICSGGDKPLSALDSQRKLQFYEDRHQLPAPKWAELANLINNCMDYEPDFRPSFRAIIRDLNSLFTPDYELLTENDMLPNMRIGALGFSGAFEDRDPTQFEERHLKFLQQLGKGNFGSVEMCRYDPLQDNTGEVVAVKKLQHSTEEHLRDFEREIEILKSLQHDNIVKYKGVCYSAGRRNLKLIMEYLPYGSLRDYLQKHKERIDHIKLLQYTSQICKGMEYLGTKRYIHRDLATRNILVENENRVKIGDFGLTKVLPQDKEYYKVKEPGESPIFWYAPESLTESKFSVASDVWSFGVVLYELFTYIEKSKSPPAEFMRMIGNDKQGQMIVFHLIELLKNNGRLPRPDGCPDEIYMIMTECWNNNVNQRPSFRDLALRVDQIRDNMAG

Row | IC50 [nM] | SMILES
1 | ≤ 5 | Cc1cc(Nc2nc(N3CCN(C(=O)c4ccccc4Br)CC3)nn3cccc23)n[nH]1 [2-(4-(2-bromobenzoyl)-1-piperazinyl)-N-(5-methyl-1H-pyrazol-3-yl)pyrrolo[2,1-f][1,2,4]triazin-4-amine]
2 | ≤ 5 | CO[C@@H](C(=O)N1CCN(c2nc(Nc3cc(C)[nH]n3)c3cccn3n2)CC1)c1ccccc1 [2-(4-((2R)-2-methoxy-2-phenylacetyl)-1-piperazinyl)-N-(5-methyl-1H-pyrazol-3-yl)pyrrolo[2,1-f][1,2,4]triazin-4-amine]
3 | ≤ 5 | Cc1cc(Nc2nc(N3CCN(C(=O)C4Cc5ccccc54)CC3)nn3cccc23)n[nH]1 (stereo not drawn) [2-(4-(bicyclo[4.2.0]octa-1,3,5-trien-7-ylcarbonyl)-1-piperazinyl)-N-(5-methyl-1H-pyrazol-3-yl)pyrrolo[2,1-f][1,2,4]triazin-4-amine]
4 | ≤ 5 | CO[C@](C(=O)N1CCN(c2nc(Nc3cc(C)[nH]n3)c3cccn3n2)CC1)(c1ccccc1)C(F)(F)F [N-(5-methyl-1H-pyrazol-3-yl)-2-(4-((2S)-3,3,3-trifluoro-2-methoxy-2-phenylpropanoyl)-1-piperazinyl)pyrrolo[2,1-f][1,2,4]triazin-4-amine]
5 | ≤ 5 | Cc1cc(Nc2nc(N3CCN(C(=O)c4ccccc4C(F)(F)F)CC3)nn3cccc23)n[nH]1 [N-(5-methyl-1H-pyrazol-3-yl)-2-(4-(2-(trifluoromethyl)benzoyl)-1-piperazinyl)pyrrolo[2,1-f][1,2,4]triazin-4-amine]
6 | ≤ 5 | Cc1cccc(CC(=O)N2CCN(c3nc(Nc4cc(C)[nH]n4)c4cccn4n3)CC2)c1 [2-(4-((3-methylphenyl)acetyl)-1-piperazinyl)-N-(5-methyl-1H-pyrazol-3-yl)pyrrolo[2,1-f][1,2,4]triazin-4-amine]
7 | ≤ 5 | Cc1cc(Nc2nc(N3CCN(C(=O)[C@@H](O)Cc4ccccc4)CC3)nn3cccc23)n[nH]1 [(2S)-1-(4-(4-((5-methyl-1H-pyrazol-3-yl)amino)pyrrolo[2,1-f][1,2,4]triazin-2-yl)-1-piperazinyl)-1-oxo-3-phenyl-2-propanol]
8 | ≤ 5 | CCC(C(=O)N1CCN(c2nc(Nc3cc(C)[nH]n3)c3cccn3n2)CC1)c1ccccc1 (stereo not drawn) [N-(5-methyl-1H-pyrazol-3-yl)-2-(4-(2-phenylbutanoyl)-1-piperazinyl)pyrrolo[2,1-f][1,2,4]triazin-4-amine]
9 | ≤ 5 | Cc1cc(Nc2nc(N3CCN(C(=O)Cc4ccccc4Br)CC3)nn3cccc23)n[nH]1 [2-(4-((2-bromophenyl)acetyl)-1-piperazinyl)-N-(5-methyl-1H-pyrazol-3-yl)pyrrolo[2,1-f][1,2,4]triazin-4-amine]
10 | ≤ 5 | Cc1cc(Nc2nc(N3CCN(C(=O)C4(c5ccccc5)CCCC4)CC3)nn3cccc23)n[nH]1 [N-(5-methyl-1H-pyrazol-3-yl)-2-(4-((1-phenylcyclopentyl)carbonyl)-1-piperazinyl)pyrrolo[2,1-f][1,2,4]triazin-4-amine]

Continued, compound first:

Row | SMILES | IC50 [nM]
11 | COc1cccc(F)c1C(=O)N1CCN(c2nc(Nc3cc(C)[nH]n3)c3cccn3n2)CC1 [2-(4-(2-fluoro-6-methoxybenzoyl)-1-piperazinyl)-N-(5-methyl-1H-pyrazol-3-yl)pyrrolo[2,1-f][1,2,4]triazin-4-amine] | ≤ 5
12 | Cc1cc(Nc2nc(N3CCN(C(=O)c4ccc(OC(F)(F)F)cc4)CC3)nn3cccc23)n[nH]1 [N-(5-methyl-1H-pyrazol-3-yl)-2-(4-(4-(trifluoromethoxy)benzoyl)-1-piperazinyl)pyrrolo[2,1-f][1,2,4]triazin-4-amine] | ≤ 5
13 | COc1ccc(CC(=O)N2CCN(c3nc(Nc4cc(C)[nH]n4)c4cccn4n3)CC2)cc1 [2-(4-((4-methoxyphenyl)acetyl)-1-piperazinyl)-N-(5-methyl-1H-pyrazol-3-yl)pyrrolo[2,1-f][1,2,4]triazin-4-amine] | ≤ 5
14 | Cc1cc(Nc2nc(N3CCN(C(=O)Cc4cccc(OC(F)(F)F)c4)CC3)nn3cccc23)n[nH]1 [N-(5-methyl-1H-pyrazol-3-yl)-2-(4-((3-(trifluoromethoxy)phenyl)acetyl)-1-piperazinyl)pyrrolo[2,1-f][1,2,4]triazin-4-amine] | ≤ 5
15 | Cc1cc(Nc2nc(N3CCN(C(=O)c4ccc(F)cc4)CC3)nn3cccc23)n[nH]1 [2-(4-(4-fluorobenzoyl)-1-piperazinyl)-N-(5-methyl-1H-pyrazol-3-yl)pyrrolo[2,1-f][1,2,4]triazin-4-amine] | ≤ 5
16 | Cc1cc(Nc2nc(N3CCN(C(=O)c4c(F)cccc4Cl)CC3)nn3cccc23)n[nH]1 [2-(4-(2-chloro-6-fluorobenzoyl)-1-piperazinyl)-N-(5-methyl-1H-pyrazol-3-yl)pyrrolo[2,1-f][1,2,4]triazin-4-amine] | ≤ 5
17 | Cc1cc(Nc2nc(N3CCN(C(=O)C4(c5c(F)cccc5Cl)CCCCC4)CC3)nn3cccc23)n[nH]1 [2-(4-((1-(2-chloro-6-fluorophenyl)cyclohexyl)carbonyl)-1-piperazinyl)-N-(5-methyl-1H-pyrazol-3-yl)pyrrolo[2,1-f][1,2,4]triazin-4-amine] | ≤ 5
18 | Cc1cc(Nc2nc(N3CCN(C(=O)c4csnn4)CC3)nn3cccc23)n[nH]1 [N-(5-methyl-1H-pyrazol-3-yl)-2-(4-(1,2,3-thiadiazol-4-ylcarbonyl)-1-piperazinyl)pyrrolo[2,1-f][1,2,4]triazin-4-amine] | ≤ 5
19 | Cc1cc(Nc2nc(N3CCN(C(=O)[C@](C)(O)c4ccc(F)cc4)CC3)nn3cccc23)n[nH]1 [(2R)-2-(4-fluorophenyl)-1-(4-(4-((5-methyl-1H-pyrazol-3-yl)amino)pyrrolo[2,1-f][1,2,4]triazin-2-yl)-1-piperazinyl)-1-oxo-2-propanol] | ≤ 5
20 | Cc1cc(Nc2nc(N3CCN(C(=O)c4cnon4)CC3)nn3cccc23)n[nH]1 [N-(5-methyl-1H-pyrazol-3-yl)-2-(4-(1,2,5-oxadiazol-3-ylcarbonyl)-1-piperazinyl)pyrrolo[2,1-f][1,2,4]triazin-4-amine] | ≤ 5
21 | Cc1cc(Nc2nc(N3CCN(C(=O)C(NC(=O)OC(C)(C)C)c4ccc(Cl)cc4)CC3)nn3cccc23)n[nH]1 (stereo not drawn) [tert-butyl (1-(4-chlorophenyl)-2-(4-(4-((5-methyl-1H-pyrazol-3-yl)amino)pyrrolo[2,1-f][1,2,4]triazin-2-yl)-1-piperazinyl)-2-oxoethyl)carbamate] | ≤ 5
22 | Cc1cc(Nc2nc(N3CCN(C(=O)c4cc(F)c(F)cc4Cl)CC3)nn3cccc23)n[nH]1 [2-(4-(2-chloro-4,5-difluorobenzoyl)-1-piperazinyl)-N-(5-methyl-1H-pyrazol-3-yl)pyrrolo[2,1-f][1,2,4]triazin-4-amine] | ≤ 5
23 | Cc1ccc(C2(C(=O)N3CCN(c4nc(Nc5cc(C)[nH]n5)c5cccn5n4)CC3)CCCCC2)cc1 [2-(4-((1-(4-methylphenyl)cyclohexyl)carbonyl)-1-piperazinyl)-N-(5-methyl-1H-pyrazol-3-yl)pyrrolo[2,1-f][1,2,4]triazin-4-amine] | ≤ 5
24 | Cc1cc(Nc2nc(N3CCN(C(=O)c4ccc(Cl)cc4Cl)CC3)nn3cccc23)n[nH]1 [2-(4-(2,4-dichlorobenzoyl)-1-piperazinyl)-N-(5-methyl-1H-pyrazol-3-yl)pyrrolo[2,1-f][1,2,4]triazin-4-amine] | ≤ 5
25 | Cc1cc(Nc2nc(N3CCN(C(=O)C4CC(=O)c5ccccc54)CC3)nn3cccc23)n[nH]1 (stereo not drawn) [3-((4-(4-((5-methyl-1H-pyrazol-3-yl)amino)pyrrolo[2,1-f][1,2,4]triazin-2-yl)-1-piperazinyl)carbonyl)-1-indanone] | ≤ 5
26 | Cc1cc(Nc2nc(N3CCN(C(=O)c4cc(Cl)ccc4Cl)CC3)nn3cccc23)n[nH]1 [2-(4-(2,5-dichlorobenzoyl)-1-piperazinyl)-N-(5-methyl-1H-pyrazol-3-yl)pyrrolo[2,1-f][1,2,4]triazin-4-amine] | ≤ 5
27 | Cc1cc(Nc2nc(N3CCN(C(=O)c4cc[nH]n4)CC3)nn3cccc23)n[nH]1 [N-(5-methyl-1H-pyrazol-3-yl)-2-(4-(1H-pyrazol-3-ylcarbonyl)-1-piperazinyl)pyrrolo[2,1-f][1,2,4]triazin-4-amine] | ≤ 5
28 | Cc1cc(Nc2nc(N3CCN(C(=O)C4(C(F)(F)F)CCC4)CC3)nn3cccc23)n[nH]1 [N-(5-methyl-1H-pyrazol-3-yl)-2-(4-((1-(trifluoromethyl)cyclobutyl)carbonyl)-1-piperazinyl)pyrrolo[2,1-f][1,2,4]triazin-4-amine] | ≤ 5
29 | Cc1cc(Nc2nc(N3CCN(C(=O)c4cc(C)oc4C)CC3)nn3cccc23)n[nH]1 [2-(4-(2,5-dimethyl-3-furoyl)-1-piperazinyl)-N-(5-methyl-1H-pyrazol-3-yl)pyrrolo[2,1-f][1,2,4]triazin-4-amine] | ≤ 5
30 | Cc1cc(Nc2nc(N3CCN(C(=O)c4cccnc4C)CC3)nn3cccc23)n[nH]1 [N-(5-methyl-1H-pyrazol-3-yl)-2-(4-((2-methyl-3-pyridinyl)carbonyl)-1-piperazinyl)pyrrolo[2,1-f][1,2,4]triazin-4-amine] | ≤ 5
31 | Cc1cc(Nc2nc(N3CCN(C(=O)c4cccc(C(F)(F)F)c4)CC3)nn3cccc23)n[nH]1 [N-(5-methyl-1H-pyrazol-3-yl)-2-(4-(3-(trifluoromethyl)benzoyl)-1-piperazinyl)pyrrolo[2,1-f][1,2,4]triazin-4-amine] | ≤ 5
32 | Cc1cc(Nc2nc(N3CCN(C(=O)c4cccnc4Cl)CC3)nn3cccc23)n[nH]1 [2-(4-((2-chloro-3-pyridinyl)carbonyl)-1-piperazinyl)-N-(5-methyl-1H-pyrazol-3-yl)pyrrolo[2,1-f][1,2,4]triazin-4-amine] | ≤ 5
33 | Cc1ccc(C(=O)N2CCN(c3nc(Nc4cc(C)[nH]n4)c4cccn4n3)CC2)cn1 [N-(5-methyl-1H-pyrazol-3-yl)-2-(4-((6-methyl-3-pyridinyl)carbonyl)-1-piperazinyl)pyrrolo[2,1-f][1,2,4]triazin-4-amine] | ≤ 5

From patent US8445676B2, “Pyrrolotriazine kinase inhibitors” (Bristol-Myers Squibb Company, priority 2008, dated 2013)
